Laboratory results reported in article PMC3842914, “Meleagrin, a New FabI Inhibitor from Penicillium chryosogenum with at Least One Additional Mode of Action” (PLoS ONE, 2013).
In brackets after ≈: the same amount, converted by molar mass. One block for each compound: values may come before it.

Assays:
[1] = test system: S. aureus RN4220 (pE194-fabI); experiment: Overexpression assay, MIC for fabI-overexpressing S. aureus RN4220 (pE194-fabI); type: cell-based; settings: Staphylococcus aureus, read-out: MIC S. aureus (pE194-fabI)
Procedure: (§1) Whole-cell antimicrobial activity was determined by broth microdilution as described previously. The test strains except for S. pneumoniae were grown to mid-log phase in Mueller–Hinton broth and diluted 1,000-fold in the same medium. Cells (10^5/mL) were inoculated into Mueller–Hinton broth and dispensed at 0.2 mL/well into a 96-well microtiter plate. S. pneumoniae was grown in tryptic soy broth supplemented with 5% sheep blood. MICs were determined in triplicate by serial 2-fold dilutions of test compounds. […] Bacterial growth was determined by measuring the absorption at 650 nm by using a microtiter ELISA reader.
(§2) An overexpression assay using S. aureus RN4220, S. aureus RN4220 (pE194), and S. aureus RN4220 (pE194-fabI) was conducted to perform target validation of FabI inhibitors as described previously. Additionally, both fabI- and fabK-overexpressing E. coli were constructed to test a multitarget effect of the compounds. The wild-type fabI gene from the genomic DNA of E. coli W3110 was amplified by PCR by using the primers 5′-[…]-3′ and 5′-[…]-3′. The wild-type fabK gene from the genomic DNA of S. pneumoniae KCTC 5412 was amplified by PCR by using the primers 5′-[…]-3′ and 5′-[…] […]-3′. The resulting products were cloned into the pBAD-TOPO TA expression vector (Invitrogen, Carlsbad, CA, USA) to yield the pBAD-fabI and pBAD-fabK recombinant plasmids, which placed the expression of the genes fabI and fabK, respectively, under the control of the arabinose promoter. Recombinant pBAD-fabI and pBAD-fabK were then introduced into the pump-negative (tolC) E. coli EW1b via electroporation to generate E. coli EW1b (pBAD-fabI) and E. coli EW1b (pBAD-fabK), respectively.

S. aureus RN4220 [2] = experiment: MIC by broth microdilution, S. aureus RN4220 (wild type); type: cell-based, Staphylococcus aureus; settings: Staphylococcus aureus; S. aureus RN4220 (wild type)
Procedure: as §1

S. aureus FabI [3] = target: T1, S. aureus FabI (Staphylococcus aureus, UniProt Q6GI75); experiment: S. aureus FabI enzyme assay (NADPH use at 340 nm, t-o-NAC thioester substrate); type: biochemical
T1 construct: made in house
T1 sequence (Q6GI75 1-256): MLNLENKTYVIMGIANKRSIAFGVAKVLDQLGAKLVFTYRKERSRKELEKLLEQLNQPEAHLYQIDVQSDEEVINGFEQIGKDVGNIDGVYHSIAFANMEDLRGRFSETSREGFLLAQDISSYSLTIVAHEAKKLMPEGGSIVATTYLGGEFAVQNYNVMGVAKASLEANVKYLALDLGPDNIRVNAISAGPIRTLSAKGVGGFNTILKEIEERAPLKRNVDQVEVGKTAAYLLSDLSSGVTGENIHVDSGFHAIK
From the text: S. aureus FabI and E. coli FabI enzymes were cloned, overexpressed, and purified as described previously. The wild-type fabK gene was amplified by PCR from genomic DNA obtained from Streptococcus pneumoniae KCTC 5412 by using the primers 5′-[…]-3′ and 5′-[…]-3′, which contained NdeI and XhoI restriction sites, respectively. After the DNA sequence was confirmed, the gene was cloned into the pET22b vector (Novagen, Gibbstown, NJ, USA). The construct was transformed into E. coli BL21 (DE3) for expression following induction with isopropylthiogalactoside. The C-terminal His-tagged protein was purified as described previously. Assays were conducted in half-area, 96-well microtiter plates. The compounds were dissolved in DMSO and evaluated in 100-μL assay mixtures containing components specific for each enzyme (see below). Reduction of the trans-2-octenoyl N-acetylcysteamine (t-o-NAC thioester) substrate analog was measured spectrophotometrically following the utilization of NADH or NADPH at 340 nm at 30°C for the linear period of the assay. S. aureus FabI assays contained 50 mM sodium acetate (pH 6.5), 200 μM t-o-NAC thioester, 200 μM NADPH, and 150 nM S. aureus FabI.
NADH was used as a cofactor rather than NADPH for the E. coli FabI assay. Substrate concentrations used for the Lineweaver–Burk plot were 100, 200, 300, and 400 μM, whereas the concentrations of the cofactor were 100, 200, 400, and 600 μM. The rate of decrease in the amount of NADPH in each reaction was measured with a microtiter enzyme-linked immunosorbent assay (ELISA) reader by using the SOFTmax PRO software (Molecular Devices, Sunnyvale, CA, USA). The inhibitory activity was calculated according to the following formula: % of inhibition = 100× [1− (rate in the presence of compound/rate in the untreated control)]. IC50 values were calculated by fitting the data to a sigmoid equation. An equal volume of DMSO solvent was used for the untreated control. FabK assays contained 100 mM sodium acetate (pH 6.5), 2% glycerol, 200 mM NH4Cl, 50 µM t-o-NAC thioester, 200 µM NADH, and 150 nM S. pneumoniae FabK.

S. aureus RN4220 (pE194) = experiment: Overexpression assay, MIC for vector-containing S. aureus RN4220 (pE194); type: cell-based; settings: Staphylococcus aureus, read-out: MIC S. aureus (pE194)
Procedure: as §1, §2

S. pneumoniae KCTC 3932 = experiment: Inhibition of macromolecular biosynthesis (radiolabeled precursor incorporation) in S. pneumoniae; type: cell-based, Streptococcus pneumoniae; settings: drugs at 2 times the MIC
Procedure: (§3) To monitor the effects of compound 1 on lipid, DNA, RNA, protein, and cell wall biosynthesis, its effects on the incorporation of [1-^14C] acetate (50 mCi/mmol), [2-^14C] thymidine (59.8 mCi/mmol), [U-^14C] uridine (539 mCi/mmol), L-[U-^14C] leucine (306 mCi/mmol) or L-[U-^14C] isoleucine (329 mCi/mmol), and N-acetyl-D-[1-^14C] glucosamine (58.1 mCi/mmol) into S. aureus and S. pneumoniae were measured as described previously. S. aureus was exponentially grown to an A650 of 0.2 in Mueller–Hinton broth. S. pneumoniae was grown in tryptic soy broth supplemented with 5% sheep blood. […] An equal volume of DMSO solvent was added to the untreated control. After incubation with the radiolabeled precursors at 37°C for 1 h, followed by centrifugation, the cell pellets were washed twice with PBS buffer. After acetate incorporation, the total cellular lipids were extracted with chloroform-methanol-water. The incorporated radioactivity in the chloroform phase was measured by scintillation counting. For the other precursors, incorporation was terminated by adding 10% (w/v) TCA and cooling on ice for 20 min. The precipitated material was collected on Whatman GF/C glass microfiber filters, washed with TCA and ethanol, dried, and counted using a scintillation counter. The total counts incorporated at 1 h of incubation without inhibitors ranged from >7,000 for [U-^14C] uridine to <13,000 for [1-^14C] acetate. […] In all experiments, known antibacterial agents were included as positive controls.

S. aureus RN4220 [4] = experiment: Inhibition of macromolecular biosynthesis (radiolabeled precursor incorporation) in S. aureus; type: cell-based, Staphylococcus aureus; settings: drugs at 2 times the MIC
Procedure: as §3

S. aureus FabI [5] = target: T1, S. aureus FabI; experiment: Fluorescence quenching assay (direct binding); settings: increasing amounts of compound; FabI fluorescence at 307 nm
Procedure: Fluorescence spectra were measured using a SHIMADZU fluorescence spectrophotometer (model RF-5310PC). […] Protein quenching was monitored at 25°C by using 5-nm excitation and 5-nm emission wavelength. The excitation wavelength was 280 nm, and the emission spectra were measured between 290 and 430 nm.

SMILES: Cc1onc(-c2ccccc2)c1C(=O)N[C@@H]1C(=O)N2[C@@H]1SC(C)(C)[C@@H]2C(=O)O [Oxacillin, reference compound]
MIC [1]: 0.25 µg/mL (≈ 0.623 µM) | MIC (S. aureus RN4220 [2]): 0.25 µg/mL (≈ 0.623 µM) | IC50 (S. aureus FabI [3]): > 100 µM | MIC (S. aureus RN4220 (pE194)): 0.25 µg/mL (≈ 0.623 µM)

SMILES: C/C=C/C/C=C/CCC(=O)[C@H]1O[C@H]1C(N)=O [cerulenin, reference compound]
Inhibition of precursor incorporation, [1-14C] Acetate (S. pneumoniae KCTC 3932): 95%

SMILES: O=C(N[C@H](CO)[C@H](O)c1ccc([N+](=O)[O-])cc1)C(Cl)Cl [chlorampenicol, chloramphenicol, reference compound]
Inhibition of precursor incorporation, L-[U-14C] Isoleucine (S. aureus RN4220 [4]): 74% | Inhibition of precursor incorporation, L-[U-14C] Isoleucine (S. pneumoniae KCTC 3932): 85%

Fluorescence quenching of S. aureus FabI (S. aureus FabI [5]): did not
SMILES: NC[C@H]1O[C@H](O[C@H]2[C@H](O)[C@@H](O[C@H]3O[C@H](CO)[C@@H](O)[C@H](N)[C@H]3O)[C@H](N)C[C@@H]2N)[C@H](O)[C@@H](O)[C@@H]1O [kanamycin, reference compound]

SMILES: CO[C@H]1/C=C/O[C@@]2(C)Oc3c(C)c(O)c4c(O)c(c(/C=N/N5CCN(C)CC5)c(O)c4c3C2=O)NC(=O)/C(C)=C\C=C\[C@H](C)[C@H](O)[C@@H](C)[C@@H](O)[C@@H](C)[C@H](OC(C)=O)[C@@H]1C [rifampin, reference compound]
Inhibition of precursor incorporation, [U-14C] Uridine (S. aureus RN4220 [4]): 69% | Inhibition of precursor incorporation, [U-14C] Uridine (S. pneumoniae KCTC 3932): 92%

SMILES: CN[C@H](CC(C)C)C(=O)N[C@H]1C(=O)N[C@@H](CC(N)=O)C(=O)N[C@H]2C(=O)N[C@H]3C(=O)N[C@H](C(=O)N[C@H](C(=O)O)c4cc(O)cc(O)c4-c4cc3ccc4O)[C@H](O)c3ccc(c(Cl)c3)Oc3cc2cc(c3O[C@@H]2O[C@H](CO)[C@@H](O)[C@H](O)[C@H]2O[C@H]2C[C@](C)(N)[C@H](O)[C@H](C)O2)Oc2ccc(cc2Cl)[C@H]1O [vancomycin, reference compound]
Inhibition of precursor incorporation, N-Acetyl-D-[1-14C] Glucosamine (S. aureus RN4220 [4]): 79% | Inhibition of precursor incorporation, N-Acetyl-D-[1-14C] Glucosamine (S. pneumoniae KCTC 3932): 88%
